Test system: EpidermFT™ Skin Model (EFT-400) full thickness skin cultures
Assay: Affymetrix GeneChip HG U133 Plus 2.0 microarray global gene expression, agent-exposed vs untreated skin cultures
Format: cell-based, human
[1] = probe 239272_at, Table 3 skin structure
[2] = probe 1552319_a_at, 0.5%, 24 hr
[3] = probe 1552578_a_at, 0.5%, 24 hr
[4] = probe 1554252_a_at, 0.5%, 24 hr
[5] = probe 1554741_s_at, 0.5%, 24 hr
[6] = probe 1554921_a_at, 0.5%, 24 hr
[7] = probe 1554980_a_at, 0.5%, 24 hr
[8] = probe 1554997_a_at, 0.5%, 24 hr
[9] = probe 1555103_s_at, 0.5%, 24 hr
[10] = probe 1555416_a_at, 0.5%, 24 hr
[11] = probe 1556410_a_at, 0.5%, 24 hr
[12] = probe 1558143_a_at, 0.5%, 24 hr
[13] = tissue exposed to salicin, skin structure gene, Table 4
[14] = tissue exposed to salicin, skin structure gene, Table 4, direction down
[15] = tissue exposed to salicin, skin structure gene, Table 4, direction up

OCc1ccccc1O[C@@H]1O[C@H](CO)[C@@H](O)[C@H](O)[C@H]1O [Salicin, 2-(Hydroxymethyl)phenyl β-D-glucospyranoside]
Direction NFKBIZ (probe 223217_s_at, 0.5%, 24 hr): up
Fold change NFKBIZ (probe 223217_s_at, 0.5%, 24 hr): 2.35
Direction SLC25A19 (probe 223222_at, 0.5%, 24 hr): up
Fold change SLC25A19 (probe 223222_at, 0.5%, 24 hr): 2.243
Direction HAS3 (probe 223541_at, 0.5%, 24 hr): down
Fold change HAS3 (probe 223541_at, 0.5%, 24 hr): 3.713
Direction TRPC4 (probe 224220_x_at, 0.5%, 24 hr): up
Fold change TRPC4 (probe 224220_x_at, 0.5%, 24 hr): 2.708
Direction CNFN (probe 224329_s_at, 0.5%, 24 hr): down
Fold change CNFN (probe 224329_s_at, 0.5%, 24 hr): 5.442
Direction H2AFJ (probe 225245_x_at, 0.5%, 24 hr): down
Fold change H2AFJ (probe 225245_x_at, 0.5%, 24 hr): 2.328
Direction ABHD2 (probe 225337_at, 0.5%, 24 hr): up
Fold change ABHD2 (probe 225337_at, 0.5%, 24 hr): 2.704
Direction NRP2 (probe 225566_at, 0.5%, 24 hr): up
Fold change NRP2 (probe 225566_at, 0.5%, 24 hr): 3.198
Direction FGF11 (probe 227271_at, 0.5%, 24 hr): down
Fold change FGF11 (probe 227271_at, 0.5%, 24 hr): 2.672
Direction HS3ST3B1 (probe 227361_at, 0.5%, 24 hr): up
Fold change HS3ST3B1 (probe 227361_at, 0.5%, 24 hr): 3.41
Direction SERPINE2 (probe 227487_s_at, 0.5%, 24 hr): up
Fold change SERPINE2 (probe 227487_s_at, 0.5%, 24 hr): 3.148
Direction ASAM (probe 228082_at, 0.5%, 24 hr): up
Fold change ASAM (probe 228082_at, 0.5%, 24 hr): 2.108
Direction IL20RB (probe 228575_at, 0.5%, 24 hr): down
Fold change IL20RB (probe 228575_at, 0.5%, 24 hr): 10.04
Direction SCN9A (probe 229199_at, 0.5%, 24 hr): up
Fold change SCN9A (probe 229199_at, 0.5%, 24 hr): 3.818
Direction CREB5 (probe 229228_at, 0.5%, 24 hr): up
Fold change CREB5 (probe 229228_at, 0.5%, 24 hr): 9.768
Direction TNS4 (probe 230398_at, 0.5%, 24 hr): down
Fold change TNS4 (probe 230398_at, 0.5%, 24 hr): 2.738
Direction SLC20A1 (probe 230494_at, 0.5%, 24 hr): up
Fold change SLC20A1 (probe 230494_at, 0.5%, 24 hr): 2.526
Direction KLF15 (probe 231015_at, 0.5%, 24 hr): up
Fold change KLF15 (probe 231015_at, 0.5%, 24 hr): 2.338
Direction KGFLP2 (probe 231031_at, 0.5%, 24 hr): up
Fold change KGFLP2 (probe 231031_at, 0.5%, 24 hr): 3.34
Direction EPPK1 (probe 232165_at, 0.5%, 24 hr): down
Fold change EPPK1 (probe 232165_at, 0.5%, 24 hr): 12.4
Direction ELOVL3 (probe 234513_at, 0.5%, 24 hr): down
Fold change ELOVL3 (probe 234513_at, 0.5%, 24 hr): 2.048
Direction KRTCAP3 (probe 235148_at, 0.5%, 24 hr): down
Fold change KRTCAP3 (probe 235148_at, 0.5%, 24 hr): 2.158
Direction GSTA4 (probe 235405_at, 0.5%, 24 hr): down
Fold change GSTA4 (probe 235405_at, 0.5%, 24 hr): 3.3
Direction SGPP2 (probe 238567_at, 0.5%, 24 hr): down
Fold change SGPP2 (probe 238567_at, 0.5%, 24 hr): 5.641
Direction MMP28 [1]: down
Fold change MMP28 [1]: 4.074
Direction MMP28 (probe 239273_s_at, 0.5%, 24 hr): down
Fold change MMP28 (probe 239273_s_at, 0.5%, 24 hr): 2.678
Direction DSEL (probe 244852_at, 0.5%, 24 hr): up
Fold change DSEL (probe 244852_at, 0.5%, 24 hr): 2.251
Direction KLK8 [2]: down
Fold change KLK8 [2]: 4.867
Direction MYO3B [3]: up
Fold change MYO3B [3]: 2.338
Direction SNX21 (probe 1553960_at, 0.5%, 24 hr): down
Fold change SNX21 (probe 1553960_at, 0.5%, 24 hr): 2.031
Direction LASS3 [4]: down
Fold change LASS3 [4]: 15.34
Direction FGF7 /// KGFLP1 /// KGFLP2 [5]: up
Fold change FGF7 /// KGFLP1 /// KGFLP2 [5]: 2.506
Direction SCEL [6]: down
Fold change SCEL [6]: 6.1
Direction ATF3 [7]: up
Fold change ATF3 [7]: 2.623
Direction PTGS2 [8]: up
Fold change PTGS2 [8]: 6.813
Direction FGF7 [9]: up
Fold change FGF7 [9]: 2.35
Direction ALOX15B [10]: down
Fold change ALOX15B [10]: 2.215
Direction KRTAP19-1 [11]: up
Fold change KRTAP19-1 [11]: 24.65
Direction BCL2L11 [12]: up
Fold change BCL2L11 [12]: 2.347
Direction LCE1E (probe 1559224_at, 0.5%, 24 hr): down
Fold change LCE1E (probe 1559224_at, 0.5%, 24 hr): 4.811
Direction LCE1B (probe 1560531_at, 0.5%, 24 hr): down
Fold change LCE1B (probe 1560531_at, 0.5%, 24 hr): 71.235
Direction ITGB1 (probe 1561042_at, 0.5%, 24 hr): up
Fold change ITGB1 (probe 1561042_at, 0.5%, 24 hr): 2.151
Direction FLG2 (probe 1569410_at, 0.5%, 24 hr): down
Fold change FLG2 (probe 1569410_at, 0.5%, 24 hr): 45.91
Direction COL4A1 (211981_at) [13]: up
Direction FBN2 (203184_at) [13]: up
Direction FN1 (214702_at) [13]: up
Direction FNDC3A (215910_s_at) [13]: up
Direction FOXO1 (202724_s_at) [13]: up
Direction IGFBP5 (211958_at) [13]: up
Direction ITGB1 (1561042_at) [13]: up
Direction KRT5 (201820_at) [13]: down
Direction KRT9 (208188_at) [13]: down
Direction MMP28 (239272_at) [13]: down
Direction SOD2 (215078_at) [13]: up
Direction TIMP3 (201150_s_at) [13]: up
Direction TNC (216005_at) [13]: up
Direction TNFAIP3 (202643_s_at) [13]: up
Fold change KRT5 (201820_at) [14]: 3.737
Fold change KRT9 (208188_at) [14]: 3.737
Fold change MMP28 (239272_at) [14]: 4.074
Fold change COL4A1 (211981_at) [15]: 2.121
Fold change FBN2 (203184_at) [15]: 2.028
Fold change FN1 (214702_at) [15]: 2.71
Fold change FNDC3A (215910_s_at) [15]: 3.663
Fold change FOXO1 (202724_s_at) [15]: 2.098
Fold change IGFBP5 (211958_at) [15]: 2.712
Fold change ITGB1 (1561042_at) [15]: 2.151
Fold change SOD2 (215078_at) [15]: 5.712
Fold change TIMP3 (201150_s_at) [15]: 2.058
Fold change TNC (216005_at) [15]: 2.719
Fold change TNFAIP3 (202643_s_at) [15]: 6.915

Reference: patent US20120034613A1, “Apparatus and Method for Testing Relationships Between Gene Expression and Physical Appearance of Skin” (NSE Products, Inc., priority 2010, published 2012)
